What was measured:
[1] = system: HSP70 expression in Neuro2A cells; experiment: HSP70 expression by Western blot in treated Neuro2A cells (Assay 1a/1b); assay type: cell-based, murine; settings: for HSP70 Expression, HSP70 by Western Blot: Neuro2A cells, Assay 1a screen at 1 μM
Procedure: HSP70 expression in neuro2A cells treated with CNS-102 analogs are examined, using Western blot analysis. An increased expression of HSP70 will indicate the candidate molecule has the prerequisite activity. This assay has a Z factor of […] and a CV of 11% for CNS-102 at 1 nM to 100 nM.
A preliminary screen and quantitative performance evaluation, and a confirmatory neuroprotective assay are developed from a model of motor neuron dysfunction in a PNS cell line.
The overall strategy, therefore, is to use a sequence of assays, each of which is targeted to address a specific aspect of the disease with the goal of identifying candidates having multiple therapeutic capabilities. These assays are chosen such that a failure to perform at any stage is expected to be fatal to the candidate's suitability as a viable ALS treatment. To this end, the following four therapeutic capabilities and corresponding assays were chosen as shown in the list below. The advancement criteria, as well as assay design where relevant, are also presented. • 1. In some embodiments, the candidates increase HSP70 expression in target cells. The initial screen (pass/fail, Assay 1a) and quantitative evaluation (EC50, Assay 1b) of candidates will use a HSP70 expression assay by Western blot on cellular extracts of treated Neuro2A cells. The screen, Assay 1a, is conducted at a single concentration, requiring a specific level of activity to pass into Assay 1b, the quantitative dose/response determination of the EC50. Only those candidates having an ECK, below 10 nM would be promoted to Assay 2. • 2. In some embodiments, the candidates increase neuronal cell health/growth in the presence of specific inhibitors of GGTase I. The ability of candidates to promote neurite extension will be measured on Neuro2A cells to model whole-cell activities important to synaptic connections and neuronal function. […] Neuroprotection afforded by candidates that have passed the first two assays will be determined on rat hippocampal neurons facing kainic acid induced damage. […] This confirmation will be determined in the SOD1 mouse model.

[2] = system: neuro2A neuroblastoma cell lines; experiment: Neurite outgrowth in Neuro2A cells challenged with GGTase I inhibitor GGTI-298 (Assay 2); assay type: cell-based, murine; settings: @ 10 nM, GGTI-298 challenge
Procedure: Neurite outgrowth in neuro2A neuroblastoma cell lines has been widely used as a cellular model for compounds screening in the CNS drug discovery and research. IN some embodiments, the effects of CNS-102 analogs on neurite outgrowth is determined. Cells will be pre-treated with candidates and then subjected to a challenge with GGTase I inhibitor GGTI-298. Retinoic Acid will be added to start the differentiation of these cells. This will identify analogs that protect neurite outgrowth, which is known to be important for establishing synaptic connections and neuronal functions. This assay has a Z factor of 0.4 and a CV of 11% for CNS-102 at 10 nM to 1 μM.
(§1) The overall strategy, therefore, is to use a sequence of assays, each of which is targeted to address a specific aspect of the disease with the goal of identifying candidates having multiple therapeutic capabilities. These assays are chosen such that a failure to perform at any stage is expected to be fatal to the candidate's suitability as a viable ALS treatment. To this end, the following four therapeutic capabilities and corresponding assays were chosen as shown in the list below. The advancement criteria, as well as assay design where relevant, are also presented. • 1. In some embodiments, the candidates increase HSP70 expression in target cells. The initial screen (pass/fail, Assay 1a) and quantitative evaluation (EC50, Assay 1b) of candidates will use a HSP70 expression assay by Western blot on cellular extracts of treated Neuro2A cells. The screen, Assay 1a, is conducted at a single concentration, requiring a specific level of activity to pass into Assay 1b, the quantitative dose/response determination of the EC50. Only those candidates having an ECK, below 10 nM would be promoted to Assay 2. • 2. In some embodiments, the candidates increase neuronal cell health/growth in the presence of specific inhibitors of GGTase I. The ability of candidates to promote neurite extension will be measured on Neuro2A cells to model whole-cell activities important to synaptic connections and neuronal function. Candidates showing >200 cells with outgrowth would be promoted to Assay 3. • 3. In some embodiments, the candidates provide protection to nerve tissue from excitotoxins. Neuroprotection afforded by candidates that have passed the first two assays will be determined on rat hippocampal neurons facing kainic acid induced damage. This is the final animal model before the ALS disease model and candidates that provide >50% protection would be tested in the disease model. • 4. In some embodiments, the candidates increase median survival time by 25% and improve neurological performance compared to control. This confirmation will be determined in the SOD1 mouse model.

rat hippocampal neurons = experiment: Rat neuroprotection model, kainic acid induced excitotoxic neuron loss in hippocampus (Assay 3); assay type: in vivo; settings: for Rat Neuroprotection, % Protection: kainic acid rat model, 2 or 20 mg/kg
Procedure: Excitotoxicity has been considered as one of the major causes for neuron loss in ALS. A probable cause for excitotoxic neuron death is excess glutamate around the synapses, due to impaired glutamate reuptake capabilities. Intra-cerebral infusion of kainic acid is a well-established and robust model for excitotoxic neuron death that has been used to investigate excitotoxicity for over fifty years. Compounds are tested, e.g., at two concentrations and compare to a vehicle control in a model that quantifies neuron loss in the CA3 area of the hippocampus. Such tests can evaluate blood brain barrier penetration and select compounds that provide neuroprotection from excitotoxic damage.
as §1

SOD1 mouse model of ALS = experiment: SOD1 mouse model of ALS: survival and cat-walk gait (Assay 4); assay type: in vivo; settings: for Run Duration, CNS-102-vehicle difference of averages / Stride Length, CNS-102-vehicle difference of averages / Swing Speed, CNS-102-vehicle difference of averages: cat-walk
Procedure: Analyses were conducted using PROC LIFEREG in SAS.
Additionally, three neurological function outcomes were chosen for analysis from those measured on a ‘cat-walk’ at irregular intervals over the duration of the study; stride length (cm), run duration (s), and swing speed (cm/s).
This non-random censoring of the treatment group data precluded using standard comparative statistical methods such as the t-test due the unverifiable compliance of the remaining data with required statistical test assumptions. Consequently, a Monte Carlo estimate of the p-value of the treatment differences was constructed using the bootstrap method.
Survival studies and behavioral tests will be performed in the SOD1 G93A model of ALS. This transgenic mouse harbors a point mutation (G93A), found in familial ALS, in the gene encoding for superoxide dismutase 1 (SOD1). This very well characterized mouse model is widely used in ALS research. […] Motor neuron death in the ventral horn of the spinal cord and loss of myelinated axons in the ventral motor roots lead to paralysis and muscle wasting. Mice initially develop normally and gain weight until approximately 100 days of age. At this point, weight loss (which is usually defined as the onset of disease), muscle weakness, and gradual paralysis start at the hind limbs and muscle wasting start to appear. […] This means that drug efficacy studies using this model can be performed within a relatively short time frame of 4-5 months. To rigorously test the efficacy of candidates in this mouse model, neurological scores are monitored, and motor scores, life span, body weight and mice tested in a battery of behavioral paradigms suitable for motor assessment.

GGTase I = GGTase I (Homo sapiens, UniProt P53609); experiment: GGTase I activity detected by fluorescent peptide dansyl-GCVLL; assay type: biochemical
Water solubility = assay type: physicochemical
From the text: The chemical structure of CNS-102 is shown. We have characterized CNS-102 (MW 330) by ^1H NMR, LC, and ESI mass spectrometry and no evidence of cis isomer was found. […] Such can enable CNS-102 to cross the blood brain barrier.

[3] = Bioavailability and brain penetration; settings: in vivo
cultured spinal neurons = settings: low concentration (1 nM-100 nM); cited from earlier work
SOD1 G93A = settings: pre-symptomatic administration or treatment at disease onset; cited from earlier work

Compound: CC(C)=CCC/C(C)=C/CC/C(C)=C/CC/C(C)=C/CC1CCCCC1=O (stereo not drawn) [CNS-G005]
- HSP70 Expression, HSP70 by Western Blot [1]: 2.78 × PBS
- Neurite Outgrowth, Cell count relative to negative control [2]: 2.28
- Rat Neuroprotection, % Protection (rat hippocampal neurons): 83%

Compound: CCCCCNC(=O)OC(C)CC/C=C(\C)CC/C=C(\C)CCC=C(C)C (stereo not drawn) [CNS-G002]
- Neurite Outgrowth, Cell count relative to negative control [2]: 1.79

Compound: CC(=O)CC/C=C(\C)CC/C=C(\C)CC/C=C(\C)CC/C=C(\C)CCC=C(C)C [CNS-G003]
- Neurite Outgrowth, Cell count relative to negative control [2]: 2.74
- Rat Neuroprotection, % Protection (rat hippocampal neurons): 82%

Compound: CC/C(=C\CCC(=O)C12CC3CC(CC(C3)C1)C2)CC/C=C(\C)CC/C=C(\C)CCC=C(C)C [CNS-G001]
- HSP70 Expression, HSP70 by Western Blot [1]: 2.00 × PBS
- Neurite Outgrowth, Cell count relative to negative control [2]: 1.79
- Rat Neuroprotection, % Protection (rat hippocampal neurons): 37%

Compound: CC(=O)CC/C=C(\C)CC/C=C(\C)CC/C=C(\C)CCC=C(C)C [CNS-102, 5E,9E,13E-geranylgeranylacetone]
- expression of HSPs ([1]; murine Neuro2A cells, HSP70 and HSP90 found): increases expression of HSPs
- Neurite Outgrowth, Cell count relative to negative control [2]: 2.00
- time of peak protection (rat hippocampal neurons; hippocampus, locally injected kainic acid, following a single oral dose): 72 h
- Rat Neuroprotection, % Protection (rat hippocampal neurons): 40%
- expression of HSPs (rat hippocampal neurons; rat kainic acid induced neurotoxicity model, HSP70 in hippocampus and cerebral cortex, HSP60, HSP70, HSP90 upregulated): increases expression of HSPs
- SOD1 Mouse Model, Survival and clinical scores: increase in survival (SOD1 mouse model of ALS; SOD1 mouse model): 9% increase
- Increase over vehicle (median survival time) (SOD1 mouse model of ALS; SOD1 mouse model, daily treatments, N=16/treatment): 9%
- improvement in median survival, CNS-102 outperformed riluzole by (SOD1 mouse model of ALS; SOD1 mouse model, difference between drug groups not statistically significant at p=0.05): 50%
- Run Duration, CNS-102-vehicle difference of averages (SOD1 mouse model of ALS; age P120 ± 1): -1.68 s
- Stride Length, CNS-102-vehicle difference of averages (SOD1 mouse model of ALS; age P120 ± 1): 1.46 cm
- Swing Speed, CNS-102-vehicle difference of averages (SOD1 mouse model of ALS; age P120 ± 1): 14.58 cm/s
- Run Duration, CNS-102-vehicle difference of averages (SOD1 mouse model of ALS; age P124 ± 3): -1.49 s
- Stride Length, CNS-102-vehicle difference of averages (SOD1 mouse model of ALS; age P124 ± 3): 1.87 cm
- Swing Speed, CNS-102-vehicle difference of averages (SOD1 mouse model of ALS; age P124 ± 3): 11.70 cm/s
- GGTase I activity (GGTase I): modulates GGTase I activity
- intrinsic water solubility (Water solubility): little intrinsic water solubility
- bioavailability and brain penetration [3]: excellent

Compound: geranylgeranyl acetone [GGA]
- proteasome inhibitor induced neurotoxicity (cultured spinal neurons): reduce proteasome inhibitor induced neurotoxicity

Compound: [O-][n+]1cccc(/C(Cl)=N/OC[C@H](O)CN2CCCCC2)c1 [arimoclomol]
- extension of life span (SOD1 G93A): approximately 5 weeks

Compound: CC(C)=CCC/C(C)=C/CC/C(C)=C/CC/C(C)=C/COC(=O)C1CCCCC1 [CNS-G004]
- Neurite Outgrowth, Cell count relative to negative control [2]: 2.61
- Rat Neuroprotection, % Protection (rat hippocampal neurons): 76%

Reference: patent publication US9119808B1, “Treating neurodegenerative diseases with GGA or a derivative thereof” (COYOTE PHARMACEUTICALS, INC., priority 2012, dated 2015)
